According to patent US12398121B2 (Nuvation Bio Inc., priority 2018, dated 2025):

Each compound was assayed against T1, ER Alpha-LBD (GST) (Homo sapiens, UniProt P03372) (assay: ER binding assay (LanthaScreen TR-FRET ER Alpha Competitive Binding Assay)). Settings: Fluormone ES2 Green tracer, read-out: ERα Ki.
T1 construct: purchased Thermo Fisher
T1 sequence (P03372 311-547 limits assumed): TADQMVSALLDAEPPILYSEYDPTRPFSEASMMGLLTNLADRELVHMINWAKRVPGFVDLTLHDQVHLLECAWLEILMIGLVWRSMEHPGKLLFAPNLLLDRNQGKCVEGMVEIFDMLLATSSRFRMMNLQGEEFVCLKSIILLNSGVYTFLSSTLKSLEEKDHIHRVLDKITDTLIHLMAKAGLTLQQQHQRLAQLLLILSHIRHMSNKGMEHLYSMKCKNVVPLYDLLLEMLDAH
Experimental: Cells were plated at varying density in the respective growth medium in 96 well plates. 24 hr later, cells were treated, in triplicate or quadruplicate, with test articles prepared in a range of concentrations by series dilution of DMSO stock solutions in growth medium and incubated for three to seven days. The number of viable 22RV1 and HT-29 cells was measured using CellTiter Glo assay (CTG, Promega, Madison, WI) after three days of treatment. The other types of cancer cells were re-treated at three or four days and the number of viable cells was measured using CTG assay after a total treatment time of six or seven days. Cell viability data were plotted using GraphPad Prism (GraphPad Software, Inc., San Diego, CA). In addition, a nonlinear regression model with a sigmoidal dose response and variable slope within GraphPad Prism was used to calculate the IC50 value of individual test articles. Additional cell proliferation assays: Other cancer cell lines are tested in a cell proliferation assay. For example, SK-OV-3 or OVCAR3 ovarian cancer cells are tested. Cells are cultured in medium recommended by the supplier (e.g., ATCC or JCRB Cell Bank), at 37° C. in a 5% CO2 environment. For the proliferation assay, cells are plated in the growth medium in 96 well plates. Seeding density is adjusted according to the cell type. […] The number of viable cells is measured using CellTiter Glo assay (CTG, Promega, Madison, WI) or similar. […] ER binding assay: ERα binding was assessed by the LanthaScreen® TR-FRET ER Alpha Competitive Binding Assay at Thermo Fisher. […] Competitive binding to the ER Alpha-LBD (GST) was detected by a test compound's ability to displace a fluorescent ligand (Fluormone™ ES2 Green tracer) from the ER Alpha-LBD (GST), which results in a loss of FRET signal between the Tb-anti-GST antibody and the tracer. […] After an incubation period at room temperature, the TR-FRET ratio of 520:495 emissions were calculated and was used to determine the IC50 from a dose response curve of the compound. […]

Compound	Ki [nM]
CN(CCCCCC(=O)N1CCN(C(=O)c2cc(Cc3n[nH]c(=O)c4ccccc34)ccc2F)CC1)CCOc1ccc(C(=O)c2c(-c3ccc(O)cc3)sc3cc(O)ccc23)cc1 [Compound 2.4, 4-(4-fluoro-3-(4-(6-((2-(4-(6-hydroxy-2-(4-hydroxyphenyl)benzo[b]thiophene-3-carbonyl)phenoxy)ethyl)(methyl)amino)hexanoyl)piperazine-1-carbonyl)benzyl)phthalazin-1(2H)-one]	5
O=C(c1ccc(OCCN2CCN(C(=O)c3cc(Cc4n[nH]c(=O)c5ccccc45)ccc3F)CC2)cc1)c1c(-c2ccc(O)cc2)sc2cc(O)ccc12 [Compound 2.13, 4-(4-fluoro-3-(4-(2-(4-(6-hydroxy-2-(4-hydroxyphenyl)benzo[b]thiophene-3-carbonyl)phenoxy)ethyl)piperazine-1-carbonyl)benzyl)phthalazin-1(2H)-one]	3.3
CCC(=C(c1ccc(O)cc1)c1ccc(OCCN2CCN(C(=O)c3cc(Cc4n[nH]c(=O)c5ccccc45)ccc3F)CC2)cc1)c1ccccc1 [Compound 2.14, 4-(4-fluoro-3-(4-(2-(4-(1-(4-hydroxyphenyl)-2-phenylbut-1-enyl)phenoxy)ethyl)piperazine-1-carbonyl)benzyl)pthalazin-1(2H)-one]	3.5
